Test results published in patent US11384078B2, “5,6-fused-bicyclic compounds and compositions for the treatment of parasitic diseases” (NOVARTIS AG, priority 2017, dated 2022).
Like-named read-outs stand apart in the source and are kept apart here. Each block holds one compound with its values, some of them ahead of it.

Tests used:
[1] = system: Leishmania donovani axenic amastigote; experiment: In vitro assay for growth inhibition of Leishmania donovani axenic amastigote (Cell TiterGlo luminescence); format: cell-based; conditions: read-out: L. donovani amastigotes EC50
Method: Abbreviations as used herein below have the corresponding meaning: • CPRG Chlorophenol Red-P-D-galactopyranoside • ATP adenosine triphosphate • BSA bovine serum albumin • DMSO dimethyl sulfoxide • FBS fetal bovine serum • PBS phosphate buffered saline • RPMI 1640 Rosweli Park Memorial Institute (RPMI) 1640 medium In Vitro Assay for Growth Inhibition of Leishmania donovani Axenic Amastiqote
Leishmania donovani axenic amastigote parasites are grown at 37° C., 5% CO2 in media made of RPMI 1640, 4 mM L-glutamine, 20% heat inactivated FBS, 100 units/ml of penicillin and 100 μg/ml of streptomycin, 23 μM folic acid, 100 μM adenosine, 22 mM D-glucose, 25 mM MES. The pH of media is adjusted to 5.5 at 37° C. using HCl. 20 μL of media is first dispensed into 384 well plates and 100 nL of the compounds of invention in DMSO are added to the plate wells. At the same time control compounds and DMSO are added to plates to serve as the positive and negative controls, respectively. 40 μL of parasite culture (9600 parasites) are then added to the plate wells. The plates are then placed into incubators. After two days incubation, 20 μL of Cell TiterGlo® (Promega) is added to the plate wells. The luminescence signal of each well is measured using the Envision reader (Perkin Elmer).

[2] = system: Trypanosoma cruzi amastigotes cultured in 3T3 fibroblast cells; experiment: Assay for growth inhibition of kinetoplastid parasite Trypanosoma cruzi (beta-galactosidase Tulahuen strain, CPRG readout); format: cell-based; conditions: read-out: Buckner infectious T. cruzi EC50
Excerpt: Assay for Growth Inhibition of Kinetoplastid Parasite Trypanosoma cruzi
Compounds of the invention can be assayed for inhibitor activity against Trypanosoma cruzi amastigotes cultured in 3T3 fibroblast cells. The assay is done using the mammalian stage (amastigotes) of T. cruzi that replicates in the intracellular space of host cells. The host cells are initially infected with the culture-derived trypomastigotes that rapidly invade and then divide as amastigotes. The protocol uses the Tulahuen strain of T. cruzi that has been engineered to express the E. coli beta-galactosidase gene (Lac-Z) (Antimicr. Agents Chemoth. 40:2592, 1996). This allows for a colorimetric readout by using the substrate CPRG and an absorbance plate reader.
3T3 fibroblast cells are re-suspended in RPMI-1640 medium without phenol red medium supplemented with 10% FBS (heat inactivated), 100 μg/ml penicillin, and 100 μg/ml streptomycin. Forty μL of suspension (1,000 cells) is dispensed into 384-well plates and incubated overnight at 37° C. temperature and in atmosphere containing 5% CO2. The following day, 100 nL of compounds of the invention in DMSO are added to plate wells containing 3T3 cells. At the same time control compounds (benznidazole and nifurtimox) and DMSO are added to plates to serve as the positive and negative controls, respectively. After that, 10 μL of media containing 10,000 T. cruzi trypomastigotes are added to each plate well and plates are placed back into incubators. After 6 day incubation, 10 μL of reagent solution (0.6 mM CPRG, 0.6% NP-40 in PBS) is added to plates and incubated at room temperature for 2 hours. Absorbance is then measured on SpectraMax GEMINI fluorimeter to determine relative number of T. cruzi cells present in each plate well.

[3] = Leishmania donovani, L. donovani axenic amastigotes in vitro
[4] = Trypanosoma cruzi, Fibroblast, T. cruzi amastigotes in 3T3 fibroblast cells
[5] = Leishmania donovani, Table 4: compound of Formula (I) compared with compounds having a different core
[6] = Trypanosoma cruzi, Fibroblast, Table 4: compound of Formula (I) compared with compounds having a different core

Structure (SMILES): Cc1nc(C)c(C(=O)Nc2ccc(F)c(-n3cc4cc(CC(C)C)cnc4n3)c2)o1 [Compound 16, N-{4-fluoro-3-[5-(2-methylpropyl)-2H-pyrazolo[3,4-b]pyridin-2-yl]phenyl}-2,4-dimethyl-1,3-oxazole-5-carboxamide]
EC50 [1, 3]: 89 nM
EC50 [2, 4]: 12 nM

Structure (SMILES): Cc1nc(C)c(C(=O)Nc2ccc(F)c(-n3cc4cc(C5CC5)cnc4n3)c2)o1 [Compound 17, N-(3-{5-cyclopropyl-2H-pyrazolo[3,4-b]pyridin-2-yl}-4-fluorophenyl)-2,4-dimethyl-1,3-oxazole-5-carboxamide]
EC50 [1, 3]: 64 nM
EC50 [2, 4]: 16 nM

Structure (SMILES): O=C(Nc1ccc(F)c(-n2cc3cc(C4CCCC4)cnc3n2)c1)N1CC(F)C1 [Compound 18, N-(3-{5-cyclopentyl-2H-pyrazolo[3,4-b]pyridin-2-yl}-4-fluorophenyl)-3-fluoroazetidine-1-carboxamide]
EC50 [1, 3]: 290 nM
EC50 [2, 4]: 160 nM

EC50 [1, 3]: 590 nM
Structure (SMILES): O=C(Nc1ccc(F)c(-n2cc3cc(C4CCCC4)cnc3n2)c1)N1CC(F)(F)C1 [Compound 30, N-(3-{5-cyclopentyl-2H-pyrazolo[3,4-b]pyridin-2-yl}-4-fluorophenyl)-3,3-difluoroazetidine-1-carboxamide]

EC50 [1, 3]: 20 nM
Structure (SMILES): CC(C)Cc1cnc2nn(-c3cc(NC(=O)N4CC[C@@H](F)C4)ccc3F)cc2c1 [Compound 41, (3R)-3-fluoro-N-{4-fluoro-3-[5-(2-methylpropyl)-2H-pyrazolo[3,4-b]pyridin-2-yl]phenyl}pyrrolidine-1-carboxamide]

Structure (SMILES): O=C(Nc1ccc(F)c(-n2cc3cc(C4CCCC4)cnc3n2)c1)N1CC[C@@H](F)C1 [Compound 43, (3R)-N-(3-{5-cyclopentyl-2H-pyrazolo[3,4-b]pyridin-2-yl}-4-fluorophenyl)-3-fluoropyrrolidine-1-carboxamide]
EC50 [1, 3]: 4.7 nM
EC50 [2, 4]: 5.2 nM

Structure (SMILES): CC(C)Cc1cnc2nn(-c3cc(NC(=O)c4ccco4)ccc3F)cc2c1 [Compound 54, N-{4-fluoro-3-[5-(2-methylpropyl)-2H-pyrazolo[3,4-b]pyridin-2-yl]phenyl}furan-2-carboxamide]
EC50 [1, 3]: 28 nM
EC50 [2, 4]: 4.1 nM

Structure (SMILES): O=C(Nc1ccc(F)c(-n2cc3cc(C4CCCCC4)cnc3n2)c1)c1ccco1 [Compound 57, N-(3-{5-cyclohexyl-2H-pyrazolo[3,4-b]pyridin-2-yl}-4-fluorophenyl)furan-2-carboxamide]
EC50 [1, 3]: 710 nM
EC50 [2, 4]: 360 nM

Structure (SMILES): CCC(C)c1cnc2nn(-c3cc(NC(=O)c4ccco4)ccc3F)cc2c1 (stereo not shown) [Compound 61, N-{3-[5-(butan-2-yl)-2H-pyrazolo[3,4-b]pyridin-2-yl]-4-fluorophenyl}furan-2-carboxamide]
EC50 [1, 3]: 240 nM
EC50 [2, 4]: 52 nM

Structure (SMILES): Cc1nc(C)c(C(=O)Nc2ccc(F)c(-n3cc4cc(CC(C)(C)C)cnc4n3)c2)o1 [Compound 102, N-{3-[5-(2,2-dimethylpropyl)-2H-pyrazolo[3,4-b]pyridin-2-yl]-4-fluorophenyl}-2,4-dimethyl-1,3-oxazole-5-carboxamide]
EC50 [1, 3]: 110 nM
EC50 [2, 4]: 46 nM

Structure (SMILES): Cc1ccc(C(=O)Nc2ccc(F)c(-n3cc4cc(C(C)C)cnc4n3)c2)o1 [Compound 109, N-{4-fluoro-3-[5-(propan-2-yl)-2H-pyrazolo[3,4-b]pyridin-2-yl]phenyl}-5-methylfuran-2-carboxamide]
EC50 [1, 3]: 74 nM
EC50 [2, 4]: 15 nM

Structure (SMILES): COc1ccc(C(=O)Nc2ccc(F)c(-n3cc4cc(C(C)C)cnc4n3)c2)o1 [Compound 110, N-{4-fluoro-3-[5-(propan-2-yl)-2H-pyrazolo[3,4-b]pyridin-2-yl]phenyl}-5-methoxyfuran-2-carboxamide]
EC50 [1, 3]: 640 nM
EC50 [2, 4]: 150 nM

Structure (SMILES): CC(C)c1cnc2nn(-c3cc(NC(=O)c4ccc(F)o4)ccc3F)cc2c1 [Compound 113, 5-fluoro-N-{4-fluoro-3-[5-(propan-2-yl)-2H-pyrazolo[3,4-b]pyridin-2-yl]phenyl}furan-2-carboxamide]
EC50 [1, 3]: 37 nM
EC50 [2, 4]: 5.22 nM

Structure (SMILES): O=C(Nc1ccc(F)c(-n2cc3cc(N4CCOCC4)cnc3n2)c1)c1ccco1 [Compound 122, N-{4-fluoro-3-[5-(morpholin-4-yl)-2H-pyrazolo[3,4-b]pyridin-2-yl]phenyl}furan-2-carboxamide]
EC50 [1, 3]: 15 nM
EC50 [2, 4]: 4.2 nM

Structure (SMILES): CC(C)c1cnc2nn(-c3cc(NC(=O)N4CC(F)(F)C4)ccc3F)cc2c1 [Compound 124, 3,3-difluoro-N-{4-fluoro-3-[5-(propan-2-yl)-2H-pyrazolo[3,4-b]pyridin-2-yl]phenyl}azetidine-1-carboxamide]
EC50 [1, 3]: 18 nM
EC50 [2, 4]: 16 nM

Structure (SMILES): CC(C)c1cnc2nn(-c3cc(NC(=O)C4CCC4)ccc3F)cc2c1 [Compound 210, N-{4-fluoro-3-[5-(propan-2-yl)-2H-pyrazolo[3,4-b]pyridin-2-yl]phenyl}cyclobutanecarboxamide]
EC50 [1, 3]: 494 nM
EC50 [2, 4]: 79 nM

Structure (SMILES): CC(C)c1cnc2nn(-c3cc(NC(=O)CC(C)C(F)(F)F)ccc3F)cc2c1 (stereo not shown) [Compound 213, 4,4,4-trifluoro-N-{4-fluoro-3-[5-(propan-2-yl)-2H-pyrazolo[3,4-b]pyridin-2-yl]phenyl}-3-methylbutanamide]
EC50 [1, 3]: 1560 nM
EC50 [2, 4]: 363 nM

Structure (SMILES): CC(C)c1cnc2nn(-c3cc(NC(=O)CC(C)(C)C)ccc3F)cc2c1 [Compound 217, N-{4-fluoro-3-[5-(propan-2-yl)-2H-pyrazolo[3,4-b]pyridin-2-yl]phenyl}-3,3-dimethylbutanamide]
EC50 [1, 3]: 14500 nM
EC50 [2, 4]: 4350 nM

Structure (SMILES): O=C(Nc1ccc(F)c(-n2cc3cc(N4CC5(C4)CC5(F)F)cnc3n2)c1)N1CC(F)C1 [Compound 261, N-[3-(5-{1,1-difluoro-5-azaspiro[2.3]hexan-5-yl}-2H-pyrazolo[3,4-b]pyridin-2-yl)-4-fluorophenyl}-3-fluoroazetidine-1-carboxamide]
EC50 [1, 3]: 4 nM
EC50 [2, 4]: 2 nM

Structure (SMILES): O=C(Nc1ccc(F)c(-n2cc3cc(N4CCC(F)(F)C4)cnc3n2)c1)N1CC(F)C1 [Compound 262, N-{3-[5-(3,3-difluoropyrrolidin-1-yl)-2H-pyrazolo[3,4-b]pyridin-2-yl]-4-fluorophenyl}-3-fluoroazetidine-1-carboxamide]
EC50 [1, 3]: 33 nM
EC50 [2, 4]: 4 nM

Structure (SMILES): Cc1nc(C)c(C(=O)Nc2ccc(F)c(-n3cc4cc(N5CC(C(F)(F)F)C5)cnc4n3)c2)o1 [Compound 279]
EC50 ([1]; L. donovani axenic amastigotes in vitro): 10 nM
EC50 ([2]; T. cruzi amastigotes in 3T3 fibroblast cells): 3 nM

Structure (SMILES): O=C(Nc1ccc(F)c(-n2cc3cc(-c4ncccc4Cl)cnc3n2)c1)C1CC1 [Compound 333, N-{3-[5-(3-chloropyridin-2-yl)-2H-pyrazolo[3,4-b]pyridin-2-yl]-4-fluorophenyl}cyclopropanecarboxamide]
EC50 [1, 3]: 43 nM
EC50 [2, 4]: 16 nM

Structure (SMILES): Cc1nc(C)c(C(=O)Nc2ccc(F)c(-n3cc4cc(C(C)C)cnc4n3)c2)o1 [drawing 458]
EC50 [1, 5]: 18 nM
EC50 [2, 6]: 15 nM

Structure (SMILES): Cc1nc(C)c(C(=O)Nc2ccc(F)c(-c3cn4cc(C(C)C)cnc4n3)c2)o1 [reference compound]
EC50 [1, 5]: 180 nM
EC50 [2, 6]: 48 nM

Structure (SMILES): Cc1nc(C)c(C(=O)Nc2ccc(F)c(-c3nc4ncc(C(C)C)cn4n3)c2)o1 [reference compound]
EC50 [1, 5]: 210 nM
EC50 [2, 6]: 45 nM

Structure (SMILES): Cc1nc(C)c(C(=O)Nc2ccc(F)c(-c3nc4ncc(C(C)(C)C)cn4n3)c2)o1 [reference compound]
EC50 [1, 5]: 80 nM
EC50 [2, 6]: 22 nM

Structure (SMILES): Cc1nc(C)c(C(=O)Nc2ccc(F)c(-c3cn4nc(C(C)(C)C)cnc4n3)c2)o1 [reference compound]
EC50 [1, 5]: 367 nM
EC50 [2, 6]: 57 nM
